Among the data in patent publication EP0103381B1, “Substituted anthra(1,9-cd)pyrazol-6(2H)-ones” (WARNER-LAMBERT COMPANY, priority 1982, dated 1984) are zone of inhibition and response vs control in vivo values, retold here.

Experiment [1] concerns Aerobacter aerogenes. The experiment is described as follows: agar plate paper-disc inhibition zone screening. The class given is cell-based. The conditions noted are these: Klebsiella aerogenes, read-out: Inhibition Zone Diameter mm (Dose mg/ml) A. Aerogenes; for zone of inhibition at 500 µg/mL: Dose 0.5 mg/ml. Put shortly:
(§1)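 Overnight bacterial cultures were suspended in 0.85% saline to 20-35% light transmittancy and mixed into molten assay agar poured in trays. Compounds at 3,000, 1,000, 500, 100 and 10 mcg/ml (solvent <10%) were applied to 12.7 mm paper discs; after 18-20 h at 37°C, inhibition zone diameters were measured in mm.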

Experiment [2] relates to Escherichia coli. The experiment is described as follows: agar plate paper-disc inhibition zone screening. It counts as cell-based. The conditions noted are these: read-out: Inhibition Zone Diameter mm (Dose mg/ml) E. Coli; for zone of inhibition at 500 µg/mL: Dose 0.5 mg/ml; for zone of inhibition at 1000 µg/mL: Dose 1.0 mg/ml. The gist of the method:
as §1

Experiment [3] concerns Bacillus subtilis. The experiment is described as follows: agar plate paper-disc inhibition zone screening. It counts as cell-based. The conditions noted are these: read-out: Inhibition Zone Diameter mm (Dose mg/ml) B. Subtilis. Put shortly:
as §1

The subject of experiment [4] is Streptococcus faecalis. The experiment can be described thus: agar plate paper-disc inhibition zone screening. It counts as cell-based. The conditions noted are these: Enterococcus faecalis, read-out: Inhibition Zone Diameter mm (Dose mg/ml) S. Faecalis; for zone of inhibition at 1000 µg/mL: Dose 1.0 mg/ml. Put shortly:
as §1

The subject of experiment [5] is lymphocytic leukemia P388. The experiment can be described thus: in vivo lymphocytic leukemia P388 test. The arrangement: species or system mice. The conditions noted are these: Mus musculus, P388, ip, 720 h; for response vs control in vivo at 0.78 mg/kg: P388, Dose 0.78 mg/kg intraperitoneally; for response vs control in vivo at 1.56 mg/kg: P388, Dose 1.56 mg/kg intraperitoneally; for response vs control in vivo at 25 mg/kg: P388, Dose 25 mg/kg intraperitoneally; for response vs control in vivo at 0.39 mg/kg: P388, Dose 0.39 mg/kg intraperitoneally. Put shortly: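 Efficacy was judged from the treated/control survival-time ratio over 30 days (T/C×100 >125% as criterion). Mice (CD2F, 6–7/group) received i.p. P388 ascites cells, then compound i.p. at varied doses twice, four days apart.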

The test system of experiment [6] is Penicillium avellaneum. The experiment can be described thus: agar plate paper-disc inhibition zone screening. The class given is cell-based. To be noted: Hamigera avellanea, read-out: Inhibition Zone Diameter mm (Dose mg/ml) P. Avellaneum. Put shortly: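 Mycelia and spores from a six-day 28°C agar culture, suspended in saline with 0.05% Tween 80 at 20% transmittancy, were seeded into molten agar trays. Compounds at 3,000, 1,000, 500, 100 and 10 mcg/ml (solvent <10%) were applied on 12.7 mm paper discs. After at least 20-24 h incubation, inhibition zone diameter was measured in mm.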

Where [7] appears, read: two single doses four days apart, read-out: T/C × 100 (Percent).
Where [8] appears, read: P388, Dose 12.5 mg/kg intraperitoneally, two single doses four days apart, read-out: T/C × 100 (Percent).
Where [9] appears, read: P388, Dose 50 mg/kg intraperitoneally, two single doses four days apart, read-out: T/C × 100 (Percent).
[10] abbreviates: P388, Dose 3.12 mg/kg intraperitoneally, two single doses four days apart, read-out: T/C × 100 (Percent).
The mark [11] stands for this setting: P388, Dose 6.25 mg/kg intraperitoneally, two single doses four days apart, read-out: T/C × 100 (Percent).

Like-named read-outs stand apart in the source and are kept apart here.

For the molecule `CCN(CC)CC(O)Cn1nc2c3c(c(NCCNCCO)ccc31)C(=O)c1c(O)ccc(O)c1-2` (stereo not drawn) [Example 43, 2-[3-(Diethylamino)-2-hydroxypropyl]-7,10-dihydroxy-5-[[2-[(2-hydroxyethyl)amino]ethyl]amino]-anthra[1,9-cd]pyrazol-6(2H)-one], the zone of inhibition at 500 µg/mL in experiment [1] and in experiment [2] was 16 mm in each case. In addition, the zone of inhibition at 3000 µg/mL in experiment [3] (Dose 3.0 mg/ml) worked out at 14 mm; in experiment [4] (Dose 3.0 mg/ml) it was 15 mm; in experiment [6] (Dose 3.0 mg/ml), 0 mm. In addition, the response vs control in vivo at 0.78 mg/kg in experiment [5] (setting [7]) was 132%. Besides, the response vs control in vivo at 1.56 mg/kg in experiment [5] (setting [7]) was found to be 139%.

On to `CCN(CC)CCNc1ccc2c3c(nn2CC(O)CN(CC)CC)-c2c(O)ccc(O)c2C(=O)c13` (stereo not drawn) [Example 44], for which the zone of inhibition at 3000 µg/mL in experiment [1] (Dose 3.0 mg/ml) was found to be 14 mm; in experiment [3] (Dose 3.0 mg/ml) it was 15 mm; in experiment [4] (Dose 3.0 mg/ml) it was 14 mm; in experiment [6] (Dose 3.0 mg/ml) it was 0 mm. The zone of inhibition at 500 µg/mL in experiment [2] worked out at 15 mm. In addition, the response vs control in vivo at 12.5 mg/kg in experiment [5] (setting [8]) was 128%. In experiment [5] (setting [7]), the response vs control in vivo at 25 mg/kg came out at 131%. Also, in experiment [5] (setting [9]), the response vs control in vivo at 50 mg/kg turned out to be 131%.

With `CCN(CC)CC(O)Cn1nc2c3c(c(NCCN)ccc31)C(=O)c1c(O)ccc(O)c1-2` (stereo not drawn) [Example 45, 5-[(2-Aminoethyl)amino]-2-[3-(diethylamino)-2-hydroxypropyl]-7,10-dihydroxyanthra[1,9-cd]pyrazol-6(2H)-one], the zone of inhibition at 500 µg/mL in experiment [1] and in experiment [2] was 15 mm each time. Further, the zone of inhibition at 3000 µg/mL in experiment [3] (Dose 3.0 mg/ml) worked out at 14 mm; in experiment [4] (Dose 3.0 mg/ml), 0 mm; in experiment [6] (Dose 3.0 mg/ml), 0 mm. Further, the response vs control in vivo at 0.39 mg/kg in experiment [5] (setting [7]) was 135%. Also, in experiment [5] (setting [7]), the response vs control in vivo at 1.56 mg/kg is 157%.

As for `CN(C)CCCn1nc2c3c(c(NCCCN)ccc31)C(=O)c1c(O)ccc(O)c1-2` [Example 47, 5-[(3-Aminopropyl)amino]-2-[3-(dimethylamino)propyl]-7,10-dihydroxyanthra[1,9-cd]pyrazol-6(2H)-one], the zone of inhibition at 3000 µg/mL in experiment [1] (Dose 3.0 mg/ml) came to 14 mm; in experiment [2] (Dose 3.0 mg/ml), 14 mm; in experiment [3] (Dose 3.0 mg/ml) it was 14 mm; in experiment [4] (Dose 3.0 mg/ml), 0 mm; in experiment [6] (Dose 3.0 mg/ml), 0 mm. In addition, in experiment [5] (setting [8]), the response vs control in vivo at 12.5 mg/kg stood at 173%. Moreover, in experiment [5] (setting [7]), the response vs control in vivo at 25 mg/kg stood at 194%.

As to `O=C1c2c(O)ccc(O)c2-c2nn(CCNCCO)c3ccc(NCCNCCO)c1c23` [Example 54, 7,10-Dihydroxy-2-[2-[12-hydroxyethyl)amino]ethyl]-5-[[2-[(2-hydroxyethyl)amino]ethyl]amino]anthra[1,9-cdlpyrazol-6(2H)-one], the zone of inhibition at 3000 µg/mL in experiment [1] (Dose 3.0 mg/ml) is 15 mm; in experiment [3] (Dose 3.0 mg/ml), 14 mm; in experiment [4] (Dose 3.0 mg/ml) it was 0 mm; in experiment [6] (Dose 3.0 mg/ml) it was 0 mm. For the same molecule, in experiment [2], the zone of inhibition at 1000 µg/mL was 14 mm. For the same molecule, the response vs control in vivo at 1.56 mg/kg in experiment [5] (setting [7]) is 158%. In addition, the response vs control in vivo at 3.12 mg/kg in experiment [5] (setting [10]) stood at 187%. Moreover, in experiment [5] (setting [11]), the response vs control in vivo at 6.25 mg/kg came out at 206%. Moreover, in experiment [5] (setting [7]), the response vs control in vivo at 25 mg/kg is 158%. Further, the response vs control in vivo at 50 mg/kg in experiment [5] (setting [9]) came out at 139%.

As for `NCCNc1ccc2c3c(nn2CCNCCO)-c2c(O)ccc(O)c2C(=O)c13` [Example 55, 5-[(2-Aminoethyl)amino]-7,10-dihydroxy-2-[2-[(2-hydroxyethyl)amino]ethyl]anthra[1,9-cd]pyrazol-6(2H)-one], the zone of inhibition at 3000 µg/mL in experiment [1] (Dose 3.0 mg/ml) was determined as 15 mm; in experiment [3] (Dose 3.0 mg/ml), 14 mm; in experiment [4] (Dose 3.0 mg/ml), 0 mm; in experiment [6] (Dose 3.0 mg/ml), 0 mm. Besides, the zone of inhibition at 1000 µg/mL in experiment [2] is 14 mm. Besides, the response vs control in vivo at 0.39 mg/kg in experiment [5] (setting [7]) was 175%. In experiment [5] (setting [7]), the response vs control in vivo at 0.78 mg/kg was 182%. Besides, the response vs control in vivo at 1.56 mg/kg in experiment [5] (setting [7]) came to 173%.

For `CN(C)CCNc1ccc2c3c(nn2CCNCCO)-c2c(O)ccc(O)c2C(=O)c13` [Example 56, 5-[[2-(Dimethylamino)ethyl]amino]-7,10-dihydroxy-2-[2-[(2-hydroxyethyl)amino]ethyl]anthra[1,9-cd]pyrazol-6(2H)-one], the zone of inhibition at 500 µg/mL in experiment [1] came to 14 mm. For the same molecule, in experiment [2], the zone of inhibition at 500 µg/mL came out at 14 mm. Besides, the zone of inhibition at 1000 µg/mL in experiment [3] (Dose 1.0 mg/ml) is 14 mm. For the same molecule, the zone of inhibition at 1000 µg/mL in experiment [4] turned out to be 14 mm. In addition, in experiment [5] (setting [7]), the response vs control in vivo at 0.78 mg/kg was found to be 152%, the response vs control in vivo at 1.56 mg/kg turned out to be 161% and the response vs control in vivo at 25 mg/kg amounted to 88%. Besides, the response vs control in vivo at 3.12 mg/kg in experiment [5] (setting [10]) was 165%. The response vs control in vivo at 6.25 mg/kg in experiment [5] (setting [11]) was determined as 165%. In addition, the zone of inhibition at 3000 µg/mL in experiment [6] (Dose 3.0 mg/ml) came out at 0 mm.

Take `CCN(CC)CCNc1ccc2c3c(nn2CCNCCO)-c2c(O)ccc(O)c2C(=O)c13` [Example 57, 5-[[2-(Diethylamino)ethyl]amino]-7,10-dihydroxy-2-[2-[(2-hydroxyethyl)amino]ethyl]anthra[1,9-cd]pyrazol-6(2H)-one]: the results for the zone of inhibition at 500 µg/mL in experiment [1], in experiment [2] and in experiment [3] (Dose 0.5 mg/ml) were 14 mm, 14 mm and 15 mm, respectively. For the same molecule, the zone of inhibition at 1000 µg/mL in experiment [4] came out at 14 mm. For the same molecule, the response vs control in vivo at 1.56 mg/kg in experiment [5] (setting [7]) stood at 131%. The response vs control in vivo at 3.12 mg/kg in experiment [5] (setting [10]) amounted to 148%. In addition, in experiment [5] (setting [11]), the response vs control in vivo at 6.25 mg/kg stood at 154%. Moreover, the response vs control in vivo at 12.5 mg/kg in experiment [5] (setting [8]) is 177%. Moreover, the response vs control in vivo at 25 mg/kg in experiment [5] (setting [7]) was determined as 190%. Also, in experiment [5] (setting [9]), the response vs control in vivo at 50 mg/kg was 241%. Also, the zone of inhibition at 3000 µg/mL in experiment [6] (Dose 3.0 mg/ml) turned out to be 14 mm.

For the molecule `NCCCNc1ccc2c3c(nn2CCNCCO)-c2c(O)ccc(O)c2C(=O)c13` [Example 58, 5-[(3-Aminopropyl)amino]-7,10-dihydroxy-2-[2-[(2-hydroxyethyl)amino]ethyl]anthra[1,9-cd]pyrazol-6(2H)-one], the zone of inhibition at 3000 µg/mL in experiment [1] worked out at 14 mm; in experiment [2] it was 15 mm; in experiment [3] it was 0 mm; in experiment [4], 0 mm; in experiment [6], 0 mm. Moreover, in experiment [5] (read-out: T/C × 100 (Percent), P388, Dose 3.12 mg/kg intraperitoneally, two single doses four days apart), the response vs control in vivo at 3.12 mg/kg is 165%. In addition, the response vs control in vivo at 6.25 mg/kg in experiment [5] (read-out: T/C × 100 (Percent), P388, Dose 6.25 mg/kg intraperitoneally, two single doses four days apart) was found to be 165%. Moreover, the response vs control in vivo at 12.5 mg/kg in experiment [5] (read-out: T/C × 100 (Percent), P388, Dose 12.5 mg/kg intraperitoneally, two single doses four days apart) worked out at 177%. Further, the response vs control in vivo at 50 mg/kg in experiment [5] (read-out: T/C × 100 (Percent), P388, Dose 50 mg/kg intraperitoneally, two single doses four days apart) is 254%. In addition, the response vs control in vivo at 100 mg/kg in experiment [5] (read-out: T/C × 100 (Percent), P388, Dose 100 mg/kg intraperitoneally, two single doses four days apart) worked out at 131%.
